Laboratory results as given in ChEMBL document CHEMBL1201862, “PubChem BioAssay data set” (2004).
Each block holds one molecule with its values, some of them ahead of it. Active and inactive are the calls of the source.

Experiments:
Prothrombin = Prothrombin (Homo sapiens, UniProt P00734); test: Thrombin 1536 HTS Dose Response Confirmation. [Related pubchem assays: 1046 (Thrombin 1536 HTS; hits were confirmed in this assay)]; format: functional
HEK293 = test: inhibitors of LMP1-driven NF-kB reporter, dose response, cell-based, HEK293, luciferase, cherry-pick (AID 588343); format: functional; details: Homo sapiens
[1] = A549 cell cytotoxicity, dose response, cytotoxicity control, plate reader, cherry-pick, antagonist series (AID 743412); format: functional, cell-based
[2] = HepG2 cell cytotoxicity, dose response, cytotoxicity control, plate reader, cherry-pick, antagonist series (AID 743416); format: functional, cell-based
[3] = LGR2 antagonists, dose response, cell-based, HEK293, CRE-luciferase reporter, cherry pick, set 2 (AID 743343); format: functional;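 further: transfected cells were stimulated with diluted bursicon conditioned medium after compound addition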
[4] = MC4R antagonists, dose response, counter-screen for LGR2 antagonist project, cell-based, plate reader, cherry pick (AID 743444); format: functional;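 further: transfected HEK 293 cells stimulated with alpha-MSH peptide; potency of inhibitors of the alpha-MSH evoked signal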
Bcl-2-related protein A1 [5] = molecular target: T1, Bcl-2-related protein A1 (Mus musculus, UniProt Q07440); test: Bfl-1 inhibitors blocking BH3 peptide binding, confirmation, biochemical, TR-FRET, mouse Bfl-1 (AID 621);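 further: TR-FRET binding of GST-Bfl-1 to FITC-labelled Bid peptide via terbium antibody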
T1 sequence (Q07440 whole entry): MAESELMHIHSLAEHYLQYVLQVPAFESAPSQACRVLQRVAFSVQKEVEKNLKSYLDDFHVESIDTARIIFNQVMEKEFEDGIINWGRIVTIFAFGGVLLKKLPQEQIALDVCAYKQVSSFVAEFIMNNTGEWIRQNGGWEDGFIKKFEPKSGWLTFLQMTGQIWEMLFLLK

Bcl-2-related protein A1 [6] = molecular target: T1, Bcl-2-related protein A1; test: Bfl-1 binding inhibitors, SAR follow-up, biochemical, fluorescence polarization (AID 1070)
[7] = molecular target: Glyceraldehyde-3-phosphate dehydrogenase (Homo sapiens, UniProt P04406)
Sequence of Glyceraldehyde-3-phosphate dehydrogenase (P04406 whole entry): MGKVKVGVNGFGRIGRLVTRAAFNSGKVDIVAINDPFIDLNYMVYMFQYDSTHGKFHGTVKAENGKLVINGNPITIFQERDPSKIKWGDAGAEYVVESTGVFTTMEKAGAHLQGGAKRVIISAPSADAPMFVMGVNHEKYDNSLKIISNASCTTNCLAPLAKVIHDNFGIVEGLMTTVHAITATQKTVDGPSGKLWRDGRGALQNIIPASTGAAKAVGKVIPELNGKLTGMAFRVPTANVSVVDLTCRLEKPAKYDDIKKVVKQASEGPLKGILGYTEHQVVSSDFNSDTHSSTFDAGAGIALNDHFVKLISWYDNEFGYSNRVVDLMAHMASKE

Cytochrome P450 2D6 = Cytochrome P450 2D6 (Homo sapiens, UniProt P10635); test: qHTS Assay for Inhibitors and Substrates of Cytochrome P450 2D6. [Related pubchem assays: 410 ]; format: ADME; details: read-out: Potency
Sequence of Cytochrome P450 2D6 (P10635 whole entry): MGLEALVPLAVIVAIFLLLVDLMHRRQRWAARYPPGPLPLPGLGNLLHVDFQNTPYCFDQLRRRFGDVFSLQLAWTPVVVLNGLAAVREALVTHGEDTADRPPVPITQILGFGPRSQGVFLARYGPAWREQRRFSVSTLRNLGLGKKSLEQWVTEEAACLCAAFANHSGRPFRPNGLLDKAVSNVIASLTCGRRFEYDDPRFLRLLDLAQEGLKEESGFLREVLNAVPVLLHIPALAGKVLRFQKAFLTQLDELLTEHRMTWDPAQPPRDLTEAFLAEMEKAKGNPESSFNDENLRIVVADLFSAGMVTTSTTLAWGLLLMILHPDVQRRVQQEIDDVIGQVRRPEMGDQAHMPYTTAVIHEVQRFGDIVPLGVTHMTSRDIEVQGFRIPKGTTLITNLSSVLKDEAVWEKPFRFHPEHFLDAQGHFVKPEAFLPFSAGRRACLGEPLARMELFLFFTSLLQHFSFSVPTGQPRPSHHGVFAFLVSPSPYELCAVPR

Cytochrome P450 2C9 = Cytochrome P450 2C9 (Homo sapiens, UniProt P11712); details: Potency
Sequence of Cytochrome P450 2C9 (P11712 whole entry): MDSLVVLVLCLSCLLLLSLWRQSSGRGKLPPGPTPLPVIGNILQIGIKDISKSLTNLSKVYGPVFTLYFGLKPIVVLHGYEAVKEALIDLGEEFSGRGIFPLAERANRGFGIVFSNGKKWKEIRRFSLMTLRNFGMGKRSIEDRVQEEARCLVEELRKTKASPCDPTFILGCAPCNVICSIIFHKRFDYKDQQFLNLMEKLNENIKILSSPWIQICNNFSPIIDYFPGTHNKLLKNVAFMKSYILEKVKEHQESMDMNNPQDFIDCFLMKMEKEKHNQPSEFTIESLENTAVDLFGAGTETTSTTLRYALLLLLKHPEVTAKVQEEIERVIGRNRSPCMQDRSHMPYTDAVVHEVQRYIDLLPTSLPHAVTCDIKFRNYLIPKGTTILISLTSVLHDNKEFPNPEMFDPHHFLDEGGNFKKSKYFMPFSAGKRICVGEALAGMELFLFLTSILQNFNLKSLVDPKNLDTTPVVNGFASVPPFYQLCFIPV

Bcl-2-related protein A1 [8] = molecular target: T1, Bcl-2-related protein A1; format: functional
[9] = molecular target: T2, Ubiquitin-conjugating enzyme E2 N (Homo sapiens, UniProt P61088); format: functional
T2 sequence (P61088 whole entry): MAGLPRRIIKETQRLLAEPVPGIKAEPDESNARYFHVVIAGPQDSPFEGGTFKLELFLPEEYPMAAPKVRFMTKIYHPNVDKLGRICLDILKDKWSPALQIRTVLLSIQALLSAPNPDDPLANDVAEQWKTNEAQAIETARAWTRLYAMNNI

[10] = molecular target: T2, Ubiquitin-conjugating enzyme E2 N; format: functional; remark: listed apart in the source
[11] = molecular target: T3, RNA-binding protein pos-1 (Caenorhabditis elegans, UniProt G5EF15); test: inhibitors of POS-1/mex-3 RNA binding, dose response, biochemical, fluorescence polarization (AID 1964);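 further: purified POS-1 fused to maltose binding protein made in E. coli; potency of compounds blocking POS-1 binding to fluorescent RNA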
T3 sequence (G5EF15 whole entry): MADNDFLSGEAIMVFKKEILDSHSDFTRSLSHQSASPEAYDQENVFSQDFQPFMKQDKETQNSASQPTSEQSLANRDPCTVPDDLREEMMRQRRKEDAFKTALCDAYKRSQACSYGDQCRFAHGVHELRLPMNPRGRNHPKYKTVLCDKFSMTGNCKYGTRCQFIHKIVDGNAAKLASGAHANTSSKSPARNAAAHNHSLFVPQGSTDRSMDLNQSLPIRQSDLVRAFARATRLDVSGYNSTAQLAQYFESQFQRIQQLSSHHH

SUMO-activating enzyme [12] = molecular target: T4, SUMO-activating enzyme (Homo sapiens, UniProt Q9UBT2); test: SUMOylation inhibitor hit validation, confirmation, SUMOylation inhibitor project, biochemical, AlphaScreen (AID 2018); format: functional
T4 sequence (Q9UBE0 whole entry): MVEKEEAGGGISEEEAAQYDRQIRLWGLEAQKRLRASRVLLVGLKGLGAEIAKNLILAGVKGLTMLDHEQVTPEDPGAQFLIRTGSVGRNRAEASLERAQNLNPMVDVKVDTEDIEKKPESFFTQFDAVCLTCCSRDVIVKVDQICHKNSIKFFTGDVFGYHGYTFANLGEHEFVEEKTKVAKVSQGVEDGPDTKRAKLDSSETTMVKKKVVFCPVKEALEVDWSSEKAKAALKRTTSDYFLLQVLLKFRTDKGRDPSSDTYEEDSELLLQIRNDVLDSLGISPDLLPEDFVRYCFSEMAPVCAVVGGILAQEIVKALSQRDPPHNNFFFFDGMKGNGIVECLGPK
T4 sequence (Q9UBT2 whole entry): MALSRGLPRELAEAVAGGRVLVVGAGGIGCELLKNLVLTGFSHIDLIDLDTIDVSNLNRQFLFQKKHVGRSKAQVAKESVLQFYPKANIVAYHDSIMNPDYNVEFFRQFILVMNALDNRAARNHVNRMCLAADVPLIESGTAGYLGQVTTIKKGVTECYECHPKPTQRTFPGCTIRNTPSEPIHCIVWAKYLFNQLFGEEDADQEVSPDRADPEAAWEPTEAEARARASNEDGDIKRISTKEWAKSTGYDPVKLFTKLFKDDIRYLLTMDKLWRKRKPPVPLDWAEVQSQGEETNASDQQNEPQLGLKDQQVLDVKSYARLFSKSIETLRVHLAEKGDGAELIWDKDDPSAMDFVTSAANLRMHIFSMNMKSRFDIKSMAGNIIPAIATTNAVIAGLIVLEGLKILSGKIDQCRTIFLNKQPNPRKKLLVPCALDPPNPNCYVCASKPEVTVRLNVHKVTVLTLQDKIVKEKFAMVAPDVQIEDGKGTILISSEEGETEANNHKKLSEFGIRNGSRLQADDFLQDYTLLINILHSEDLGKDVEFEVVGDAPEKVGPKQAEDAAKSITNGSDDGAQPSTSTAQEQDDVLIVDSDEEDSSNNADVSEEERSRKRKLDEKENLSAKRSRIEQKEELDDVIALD

[13] = molecular target: T5, Zinc finger protein mex-5 (Caenorhabditis elegans, UniProt Q9XUB2); test: MEX-5/TCR-2 RNA interaction inhibitors, dose response, biochemical, C. elegans, fluorescence polarization (AID 1960)
T5 sequence (Q9XUB2 whole entry): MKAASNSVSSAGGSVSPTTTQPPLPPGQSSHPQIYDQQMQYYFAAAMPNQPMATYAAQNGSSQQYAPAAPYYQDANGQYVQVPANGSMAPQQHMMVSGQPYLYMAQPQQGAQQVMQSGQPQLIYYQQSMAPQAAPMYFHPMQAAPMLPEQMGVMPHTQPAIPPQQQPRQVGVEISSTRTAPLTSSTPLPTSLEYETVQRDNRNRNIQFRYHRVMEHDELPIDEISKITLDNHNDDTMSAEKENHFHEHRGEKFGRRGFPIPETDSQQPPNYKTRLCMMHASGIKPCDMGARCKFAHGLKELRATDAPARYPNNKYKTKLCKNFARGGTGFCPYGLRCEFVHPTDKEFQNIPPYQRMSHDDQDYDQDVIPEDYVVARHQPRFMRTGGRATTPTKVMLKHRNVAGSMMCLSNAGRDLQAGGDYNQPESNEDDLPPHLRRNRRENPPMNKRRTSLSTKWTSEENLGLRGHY

SUMO-activating enzyme [14] = molecular target: T4, SUMO-activating enzyme; test: inhibitors of in vitro SUMOylation cascade, primary screen, biochemical, HTRF, uHTS (AID 2006); format: protein-complex assay
[15] = molecular target: Induced myeloid leukemia cell differentiation protein Mcl-1 (Homo sapiens, UniProt Q07820); format: functional
Sequence of Induced myeloid leukemia cell differentiation protein Mcl-1 (Q07820 whole entry): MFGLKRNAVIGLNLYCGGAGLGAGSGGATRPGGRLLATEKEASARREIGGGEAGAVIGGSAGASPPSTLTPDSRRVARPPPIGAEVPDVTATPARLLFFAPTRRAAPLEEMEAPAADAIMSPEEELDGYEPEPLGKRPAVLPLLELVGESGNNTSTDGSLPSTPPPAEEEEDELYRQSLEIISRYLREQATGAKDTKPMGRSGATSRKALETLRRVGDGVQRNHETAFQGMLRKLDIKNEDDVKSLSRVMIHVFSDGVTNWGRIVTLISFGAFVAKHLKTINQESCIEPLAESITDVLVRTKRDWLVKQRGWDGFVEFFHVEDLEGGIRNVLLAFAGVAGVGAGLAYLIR

- IC50 (Prothrombin): 0.246 µM (active)
Structure (SMILES): COCC(=O)n1nc(-c2ccccc2)nc1NCc1ccccc1

- IC50 (Bcl-2-related protein A1 [5]): > 100 µM (not active)
- IC50 (Bcl-2-related protein A1 [6]): > 100 µM (not active)
Structure (SMILES): Clc1ccc(-n2nnc(-c3cccnc3)n2)cn1

- IC50 [7]: > 100 µM (not active)
Structure (SMILES): O=C1C2CC=CCC2C(=O)N1c1nc(-c2ccco2)n[nH]1 (stereo unspecified)

- AC50 (Cytochrome P450 2D6): 10 µM (inconclusive)
- AC50 (Cytochrome P450 2C9): 39.8 µM (inconclusive)
Structure (SMILES): C=C1C(=O)O[C@H]2C[C@@]3(C)CCCC(=C)[C@@H]3C[C@H]12

- IC50 [7]: > 10 µM (inconclusive)
- IC50 (Bcl-2-related protein A1 [5]): 1.33 µM (active)
- IC50 (Bcl-2-related protein A1 [6]): 1.63 µM (active)
Structure (SMILES): O=C1C(Cl)=C(N2CCOCC2)C(=O)N1c1cc(Cl)cc(Cl)c1

- EC50 [11]: > 300 µM (inconclusive)
- IC50 (SUMO-activating enzyme [12]): 6.48 µM (active)
- EC50 [13]: > 300 µM (not active)
- IC50 (SUMO-activating enzyme [14]): 25.7 µM (active)
- IC50 [15]: 1.59 µM (active)
Structure (SMILES): CC1=C(C#N)C(=O)NC(=O)/C1=C/c1ccc(-c2ccc(S(N)(=O)=O)cc2)o1

The remaining lines, values behind:

Structure (SMILES): O=C(Nc1nc2cc3c(cc2s1)OCO3)c1ccco1
- IC50 (Prothrombin): 9.57 µM (active)
- AC50 (HEK293): 1.57 µM (active)
- AC50 [1]: > 52 µM (inactive)
- AC50 [2]: > 52 µM (inactive)
- AC50 [3]: 4.2 µM (active)
- AC50 [4]: 4.79 µM (active)

Structure (SMILES): C=CC1=C(C)C2=NC/1=C\C1=[N+]3[Zn-2][N+]4=C(/C=C5N=C(/C=C3/C(CCC(=O)O)=C1C)C(CCC(=O)O)=C\5C)C(C)=C(C=C)/C4=C/2
- AC50 (Cytochrome P450 2D6): 25.1 µM (inconclusive)
- AC50 (Cytochrome P450 2C9): 39.8 µM (inconclusive)

Structure (SMILES): c1ccc(Nc2cc(-c3ccoc3)ncn2)cc1
- AC50 (Cytochrome P450 2D6): 20 µM (inconclusive)

Structure (SMILES): CCOC(=O)c1c(C)c2c(n1C)CCC/C2=N\O
- IC50 (Bcl-2-related protein A1 [8]): > 20 µM (inactive)
- IC50 [9]: 19.5 µM (active)
- IC50 [10]: 8.75 µM (active)
